Assay results reported in article doi:10.1101/2021.04.08.439011v1 (biorxiv, 2021).
Read-outs that look alike come from different tables or passages of the source.

Key:
TAOK2 = TAOK2 (Homo sapiens, UniProt Q9UL54); conditions: 1 µM; binder
HASPIN = HASPIN (Homo sapiens, UniProt Q8TF76); conditions: 1 µM; binder
TYRO3 = TYRO3 (Homo sapiens, UniProt Q06418); conditions: 1 µM; binder
LIMK1 = LIMK1 (Homo sapiens, UniProt P53667); conditions: 1 µM; binder
ACVRL1 = ACVRL1 (Homo sapiens, UniProt P37023); conditions: 1 µM; binder
ROCK1 = ROCK1 (Homo sapiens, UniProt Q13464); conditions: 1 µM; binder
LATS1 = LATS1 (Homo sapiens, UniProt O95835); conditions: 1 µM; binder
ERK1 = ERK1 (Homo sapiens, UniProt P27361); conditions: 1 µM; binder
Sequence of ERK1 (P27361 whole entry): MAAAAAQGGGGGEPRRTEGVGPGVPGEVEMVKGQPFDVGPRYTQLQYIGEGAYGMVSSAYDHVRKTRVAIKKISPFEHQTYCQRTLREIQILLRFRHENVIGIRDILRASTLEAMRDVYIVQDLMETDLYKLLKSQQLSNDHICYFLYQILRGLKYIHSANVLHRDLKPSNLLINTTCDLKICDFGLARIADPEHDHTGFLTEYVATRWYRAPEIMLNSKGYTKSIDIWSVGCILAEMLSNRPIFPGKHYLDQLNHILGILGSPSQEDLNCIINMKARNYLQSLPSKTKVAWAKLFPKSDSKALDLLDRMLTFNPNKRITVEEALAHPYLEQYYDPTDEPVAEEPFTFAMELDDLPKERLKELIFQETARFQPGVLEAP

PRKD3 = PRKD3 (Homo sapiens, UniProt O94806); conditions: 1 µM; binder
BRAF(V600E) = BRAF(V600E) (Homo sapiens, UniProt P15056, V600E); conditions: 1 µM; binder
ADCK3 = ADCK3 (Homo sapiens, UniProt Q8NI60); conditions: 1 µM; binder
Sequence of ADCK3 (Q8NI60 whole entry): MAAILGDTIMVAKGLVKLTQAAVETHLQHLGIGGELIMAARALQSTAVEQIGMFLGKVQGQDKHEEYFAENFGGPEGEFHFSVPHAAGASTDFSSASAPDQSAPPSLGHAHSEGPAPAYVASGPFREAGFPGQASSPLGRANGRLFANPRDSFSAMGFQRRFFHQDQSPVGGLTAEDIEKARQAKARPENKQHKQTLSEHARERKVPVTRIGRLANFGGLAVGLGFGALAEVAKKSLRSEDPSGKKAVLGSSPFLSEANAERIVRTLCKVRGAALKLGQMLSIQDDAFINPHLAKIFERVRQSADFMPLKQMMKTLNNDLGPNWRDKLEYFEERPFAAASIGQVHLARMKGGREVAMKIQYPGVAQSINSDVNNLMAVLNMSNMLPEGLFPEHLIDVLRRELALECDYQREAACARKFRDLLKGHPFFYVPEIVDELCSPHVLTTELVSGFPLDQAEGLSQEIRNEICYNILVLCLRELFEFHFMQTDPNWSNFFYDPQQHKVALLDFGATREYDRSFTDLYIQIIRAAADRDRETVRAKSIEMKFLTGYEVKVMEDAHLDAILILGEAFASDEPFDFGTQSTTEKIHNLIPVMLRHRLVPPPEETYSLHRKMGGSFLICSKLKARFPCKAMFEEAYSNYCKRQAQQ

NEK1 = NEK1 (Homo sapiens, UniProt Q96PY6); conditions: 1 µM; binder
ULK3 = ULK3 (Homo sapiens, UniProt Q6PHR2); conditions: 1 µM; binder
KIT(A829P) = KIT(A829P) (Homo sapiens, UniProt P10721, A829P); conditions: 1 µM; binder
MEK5 = MEK5 (Homo sapiens, UniProt Q13163); conditions: 1 µM; binder
Sequence of MEK5 (Q13163 whole entry): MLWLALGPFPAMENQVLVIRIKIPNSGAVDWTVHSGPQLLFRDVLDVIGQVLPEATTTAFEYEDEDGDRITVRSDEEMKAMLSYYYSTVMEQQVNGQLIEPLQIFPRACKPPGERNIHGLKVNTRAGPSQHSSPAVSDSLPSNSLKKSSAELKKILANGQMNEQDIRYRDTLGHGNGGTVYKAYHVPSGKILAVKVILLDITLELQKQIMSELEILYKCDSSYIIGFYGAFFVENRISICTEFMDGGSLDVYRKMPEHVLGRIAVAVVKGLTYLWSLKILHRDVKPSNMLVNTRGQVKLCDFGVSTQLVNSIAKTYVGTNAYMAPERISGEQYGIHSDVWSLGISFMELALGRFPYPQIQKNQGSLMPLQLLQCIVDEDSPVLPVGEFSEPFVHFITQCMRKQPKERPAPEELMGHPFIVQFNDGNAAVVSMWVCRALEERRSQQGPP

PRKCD = PRKCD (Homo sapiens, UniProt Q05655); conditions: 1 µM; binder
FER = FER (Homo sapiens, UniProt P16591); conditions: 1 µM; binder
NEK5 = NEK5 (Homo sapiens, UniProt Q6P3R8); conditions: 1 µM; binder
TSSK1B = TSSK1B (Homo sapiens, UniProt Q9BXA7); conditions: 1 µM; binder
FAK = FAK (Homo sapiens, UniProt Q05397); conditions: 1 µM; binder
Sequence of FAK (Q05397 whole entry): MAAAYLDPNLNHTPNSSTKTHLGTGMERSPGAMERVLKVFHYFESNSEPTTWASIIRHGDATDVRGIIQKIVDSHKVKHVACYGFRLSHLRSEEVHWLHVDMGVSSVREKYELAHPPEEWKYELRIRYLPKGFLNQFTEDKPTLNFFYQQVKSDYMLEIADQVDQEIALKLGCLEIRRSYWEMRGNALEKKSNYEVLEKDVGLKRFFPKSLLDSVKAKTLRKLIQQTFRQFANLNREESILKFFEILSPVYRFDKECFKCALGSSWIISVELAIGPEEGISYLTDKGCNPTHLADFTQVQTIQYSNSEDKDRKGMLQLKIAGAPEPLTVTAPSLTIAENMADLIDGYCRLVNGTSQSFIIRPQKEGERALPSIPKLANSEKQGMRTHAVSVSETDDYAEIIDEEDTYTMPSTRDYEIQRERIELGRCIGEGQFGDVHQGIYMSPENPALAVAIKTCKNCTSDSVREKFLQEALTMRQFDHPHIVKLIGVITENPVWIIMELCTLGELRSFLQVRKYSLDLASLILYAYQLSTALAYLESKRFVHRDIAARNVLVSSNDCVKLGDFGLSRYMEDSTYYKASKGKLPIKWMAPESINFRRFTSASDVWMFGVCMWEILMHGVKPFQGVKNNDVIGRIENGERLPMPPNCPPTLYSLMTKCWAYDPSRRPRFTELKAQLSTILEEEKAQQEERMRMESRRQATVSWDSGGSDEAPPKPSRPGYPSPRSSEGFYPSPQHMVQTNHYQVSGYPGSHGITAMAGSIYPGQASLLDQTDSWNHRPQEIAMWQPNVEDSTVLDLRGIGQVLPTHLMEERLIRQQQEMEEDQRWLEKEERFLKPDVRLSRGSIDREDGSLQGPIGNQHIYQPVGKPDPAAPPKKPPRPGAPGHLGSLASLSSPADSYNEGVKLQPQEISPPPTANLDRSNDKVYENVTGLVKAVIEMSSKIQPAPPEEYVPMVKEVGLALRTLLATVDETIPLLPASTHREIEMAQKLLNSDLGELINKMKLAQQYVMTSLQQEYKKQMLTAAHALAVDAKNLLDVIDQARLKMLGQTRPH

FGFR2 = FGFR2 (Homo sapiens, UniProt P21802); conditions: 1 µM; binder
AKT3 = AKT3 (Homo sapiens, UniProt Q9Y243); conditions: 1 µM; binder
EPHA5 = EPHA5 (Homo sapiens, UniProt P54756); conditions: 1 µM; binder
JAK1 = JAK1 (Homo sapiens, UniProt P23458); conditions: binder
Sequence of JAK1 (P23458 whole entry): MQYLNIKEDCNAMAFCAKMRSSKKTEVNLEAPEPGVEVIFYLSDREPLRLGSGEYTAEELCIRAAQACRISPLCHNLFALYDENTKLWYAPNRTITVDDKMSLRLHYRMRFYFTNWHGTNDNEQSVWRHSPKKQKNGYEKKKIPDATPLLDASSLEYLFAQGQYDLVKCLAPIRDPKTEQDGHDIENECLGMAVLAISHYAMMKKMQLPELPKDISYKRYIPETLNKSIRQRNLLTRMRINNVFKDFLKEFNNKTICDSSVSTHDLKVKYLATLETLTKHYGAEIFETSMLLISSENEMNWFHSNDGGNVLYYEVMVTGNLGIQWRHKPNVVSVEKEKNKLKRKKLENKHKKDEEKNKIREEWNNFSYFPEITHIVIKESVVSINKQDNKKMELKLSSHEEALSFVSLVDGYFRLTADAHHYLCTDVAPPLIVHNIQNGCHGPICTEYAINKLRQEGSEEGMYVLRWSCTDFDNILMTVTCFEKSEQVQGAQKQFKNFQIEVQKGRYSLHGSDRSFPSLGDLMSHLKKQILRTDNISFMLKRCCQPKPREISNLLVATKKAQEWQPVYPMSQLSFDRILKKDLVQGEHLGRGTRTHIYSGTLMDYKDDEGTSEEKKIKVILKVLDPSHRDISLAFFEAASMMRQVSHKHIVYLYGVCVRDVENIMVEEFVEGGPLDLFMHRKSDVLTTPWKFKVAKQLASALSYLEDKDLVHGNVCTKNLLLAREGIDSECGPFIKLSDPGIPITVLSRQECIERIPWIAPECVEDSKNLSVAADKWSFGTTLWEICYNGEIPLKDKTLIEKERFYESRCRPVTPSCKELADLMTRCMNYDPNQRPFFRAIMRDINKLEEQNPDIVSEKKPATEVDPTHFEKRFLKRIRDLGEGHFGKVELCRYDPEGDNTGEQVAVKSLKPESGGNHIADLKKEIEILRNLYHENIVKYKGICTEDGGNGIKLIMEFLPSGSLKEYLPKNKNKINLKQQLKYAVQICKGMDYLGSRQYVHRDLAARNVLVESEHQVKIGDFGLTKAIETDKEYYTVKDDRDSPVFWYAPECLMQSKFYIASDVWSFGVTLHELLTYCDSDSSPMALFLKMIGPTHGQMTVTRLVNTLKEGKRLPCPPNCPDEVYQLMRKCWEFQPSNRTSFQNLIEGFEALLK

MAPKAPK5 = MAPKAPK5 (Homo sapiens, UniProt Q8IW41); conditions: 1 µM; binder
MST4 = MST4 (Homo sapiens, UniProt Q9P289); conditions: 1 µM; binder
ASK1 = ASK1 (Homo sapiens, UniProt Q99683); conditions: 1 µM; binder
YES = YES (Homo sapiens, UniProt P07947); conditions: 1 µM; binder
ABL1-phosphorylated = ABL1-phosphorylated (Homo sapiens, UniProt P00519); conditions: 1 µM; binder
KIT(D816V) = KIT(D816V) (Homo sapiens, UniProt P10721, D816V); conditions: 1 µM; binder

Sequence of TAOK2 (Q9UL54 whole entry): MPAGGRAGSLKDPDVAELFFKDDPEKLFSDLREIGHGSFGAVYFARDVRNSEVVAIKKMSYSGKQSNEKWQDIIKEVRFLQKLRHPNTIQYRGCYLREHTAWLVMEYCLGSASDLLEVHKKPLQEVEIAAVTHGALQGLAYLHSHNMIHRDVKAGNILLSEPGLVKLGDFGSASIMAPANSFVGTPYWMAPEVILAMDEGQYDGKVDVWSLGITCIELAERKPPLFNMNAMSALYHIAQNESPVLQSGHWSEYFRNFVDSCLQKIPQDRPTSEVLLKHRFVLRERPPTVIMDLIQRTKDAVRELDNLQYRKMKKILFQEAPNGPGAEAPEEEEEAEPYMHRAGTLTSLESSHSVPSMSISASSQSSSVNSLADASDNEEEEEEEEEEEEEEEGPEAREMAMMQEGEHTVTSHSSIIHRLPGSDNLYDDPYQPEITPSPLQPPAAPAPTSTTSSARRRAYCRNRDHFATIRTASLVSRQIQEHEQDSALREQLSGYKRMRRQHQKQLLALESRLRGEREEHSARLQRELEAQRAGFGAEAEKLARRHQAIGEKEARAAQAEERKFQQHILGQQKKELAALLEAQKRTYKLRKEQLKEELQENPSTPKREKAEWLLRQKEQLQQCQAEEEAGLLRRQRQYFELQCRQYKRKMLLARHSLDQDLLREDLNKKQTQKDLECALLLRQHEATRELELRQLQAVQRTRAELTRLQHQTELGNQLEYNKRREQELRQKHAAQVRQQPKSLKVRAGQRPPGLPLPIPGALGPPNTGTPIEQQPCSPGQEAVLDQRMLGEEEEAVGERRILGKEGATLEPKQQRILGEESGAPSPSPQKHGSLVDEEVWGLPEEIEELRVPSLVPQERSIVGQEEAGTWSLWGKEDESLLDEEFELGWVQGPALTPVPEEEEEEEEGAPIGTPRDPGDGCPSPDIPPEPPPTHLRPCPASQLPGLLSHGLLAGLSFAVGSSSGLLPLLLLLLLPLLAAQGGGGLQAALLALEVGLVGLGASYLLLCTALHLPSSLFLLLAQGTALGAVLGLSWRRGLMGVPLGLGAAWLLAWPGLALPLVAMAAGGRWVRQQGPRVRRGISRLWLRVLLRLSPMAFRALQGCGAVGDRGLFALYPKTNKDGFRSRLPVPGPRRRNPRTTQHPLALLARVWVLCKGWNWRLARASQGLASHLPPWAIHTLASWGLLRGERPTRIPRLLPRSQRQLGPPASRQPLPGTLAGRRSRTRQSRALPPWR

Compound: CNc1ncc2cc(-c3ccc(-c4cccc(C)n4)cc3Cl)c(=O)n(C[C@H]3OC[C@H](N)CO3)c2n1 [compound 6, G-5555]
- Percent Control (TAOK2): 100%
- Percent Control (HASPIN): 100%
- Percent Control (TYRO3): 92%
- Percent Control (LIMK1): 59%
- Percent Control (ACVRL1): 100%
- Percent Control (ROCK1): 100%
- Percent Control (LATS1): 41%
- Percent Control (ERK1): 74%
- Percent Control (PRKD3): 20%
- Percent Control (BRAF(V600E)): 93%
- Percent Control (ADCK3): 100%
- Percent Control (NEK1): 100%
- Percent Control (ULK3): 52%
- Percent Control (KIT(A829P)): 63%
- Percent Control (MEK5): 0.2%
- Percent Control (PRKCD): 100%
- Percent Control (FER): 100%
- Percent Control (NEK5): 100%
- Percent Control (TSSK1B): 100%
- Percent Control (FAK): 100%
- Percent Control (FGFR2): 100%
- Percent Control (AKT3): 48%
- Percent Control (EPHA5): 100%
- Percent Control (JAK1; JH1 domain catalytic): 100%
- Percent Control (JAK1; JH2 domain pseudokinase, 1 µM): 92%
- Percent Control (MAPKAPK5): 100%
- Percent Control (MST4): 0%
- Percent Control (ASK1): 71%
- Percent Control (YES): 100%
- Percent Control (ABL1-phosphorylated): 95%
- Percent Control (KIT(D816V)): 100%
